According to the NIST ThermoML archive (doi:10.1021/je060389r):
Numbers after ± are expanded uncertainties.

Assays:
[1] = 298.15 K, 101 kPa, Liquid; for viscosity: Capillary tube (Ostwald / Ubbelohde) method; for speed of sound: Linear variable-path acoustic interferometer; for mass density: Pycnometric method
[2] = xn = mol fraction of the nth substance listed; settings: 298.15 K, 101 kPa, Liquid; for viscosity: Capillary tube (Ostwald / Ubbelohde) method; for speed of sound: Linear variable-path acoustic interferometer; for mass density: Pycnometric method

CC(C)CO [2-methyl-1-propanol]
[1]
Settings	mass density [kg/m3]	speed of sound [m/s]	viscosity [mPa·s]
–	798.2 ± 0.4	1191.3 ± 9.6	3.404 ± 0.029

CC(C)CO [2-methyl-1-propanol] + CCCCCC
[2]
Settings	mass density [kg/m3]	speed of sound [m/s]	viscosity [mPa·s]
x1 = 0.0554	660.1 ± 0.4	1077.5 ± 8.7	0.323 ± 0.012
x1 = 0.104	664.9 ± 0.4	1077.5 ± 8.7	0.337 ± 0.012
x1 = 0.2	675.1 ± 0.4	1080.1 ± 8.7	0.373 ± 0.012
x1 = 0.3274	690.1 ± 0.4	1086.7 ± 8.8	0.462 ± 0.012
x1 = 0.4173	701.6 ± 0.4	1094.1 ± 8.8	0.547 ± 0.013
x1 = 0.4666	708.3 ± 0.4	1099.2 ± 8.9	0.606 ± 0.013
x1 = 0.5057	713.8 ± 0.4	1103.5 ± 8.9	0.659 ± 0.013
x1 = 0.5589	721.5 ± 0.4	1110 ± 9	0.748 ± 0.013
x1 = 0.609	729 ± 0.4	1116.9 ± 9	0.859 ± 0.013
x1 = 0.7073	744.6 ± 0.4	1132.5 ± 9.2	1.162 ± 0.014
x1 = 0.8051	761.2 ± 0.4	1150 ± 9.3	1.627 ± 0.017
x1 = 0.861	771.2 ± 0.4	1161.3 ± 9.4	2.004 ± 0.019
x1 = 0.9149	781.3 ± 0.4	1172.5 ± 9.5	2.454 ± 0.022
x1 = 0.9376	785.7 ± 0.4	1177.5 ± 9.5	2.67 ± 0.023
x1 = 1	798.2 ± 0.4	1191.3 ± 9.6	3.404 ± 0.029

CC(C)CO [2-methyl-1-propanol] + CCCCCCCC
[2]
Settings	mass density [kg/m3]	speed of sound [m/s]	viscosity [mPa·s]
x1 = 0.0589	701.5 ± 0.4	1168.3 ± 9.4	0.527 ± 0.013
x1 = 0.1165	704.5 ± 0.4	1166.5 ± 9.4	0.535 ± 0.013
x1 = 0.205	709.8 ± 0.4	1164.8 ± 9.4	0.576 ± 0.013
x1 = 0.2792	714.7 ± 0.4	1164 ± 9.4	0.617 ± 0.013
x1 = 0.3371	718.9 ± 0.4	1163.1 ± 9.4	0.663 ± 0.013
x1 = 0.4081	724.6 ± 0.4	1162.7 ± 9.4	0.719 ± 0.013
x1 = 0.4662	729.6 ± 0.4	1163.3 ± 9.4	0.788 ± 0.013
x1 = 0.5126	733.9 ± 0.4	1163.7 ± 9.4	0.85 ± 0.013
x1 = 0.6126	744.1 ± 0.4	1166.3 ± 9.4	1.028 ± 0.014
x1 = 0.6615	749.5 ± 0.4	1168.4 ± 9.4	1.154 ± 0.014
x1 = 0.7069	754.9 ± 0.4	1170 ± 9.5	1.3 ± 0.015
x1 = 0.7855	765 ± 0.4	1173.5 ± 9.5	1.634 ± 0.017
x1 = 0.8615	775.8 ± 0.4	1178.6 ± 9.5	2.102 ± 0.019
x1 = 0.9523	790.1 ± 0.4	1187 ± 9.6	2.875 ± 0.025
x1 = 1	798.2 ± 0.4	1191.3 ± 9.6	3.404 ± 0.029

CC(C)CO [2-methyl-1-propanol] + CCCCCCCCCC
[2]
Settings	mass density [kg/m3]	speed of sound [m/s]	viscosity [mPa·s]
x1 = 0.0728	728.1 ± 0.4	1228.7 ± 9.9	0.848 ± 0.013
x1 = 0.1021	729 ± 0.4	1226.6 ± 9.9	0.859 ± 0.013
x1 = 0.2032	732.6 ± 0.4	1219.9 ± 9.9	0.89 ± 0.013
x1 = 0.2976	736.4 ± 0.4	1215.2 ± 9.8	0.934 ± 0.014
x1 = 0.3547	739 ± 0.4	1212.2 ± 9.8	0.976 ± 0.014
x1 = 0.4171	742.1 ± 0.4	1209.4 ± 9.8	1.023 ± 0.014
x1 = 0.5016	747 ± 0.4	1206.1 ± 9.8	1.119 ± 0.014
x1 = 0.6084	754.2 ± 0.4	1201.8 ± 9.7	1.297 ± 0.015
x1 = 0.6575	758 ± 0.4	1200.2 ± 9.7	1.415 ± 0.016
x1 = 0.7027	761.9 ± 0.4	1198.4 ± 9.7	1.543 ± 0.016
x1 = 0.8004	771.6 ± 0.4	1195.1 ± 9.7	1.942 ± 0.018
x1 = 0.8952	782.9 ± 0.4	1192.9 ± 9.6	2.503 ± 0.022
x1 = 0.9497	790.5 ± 0.4	1192 ± 9.6	2.928 ± 0.025
x1 = 0.9848	795.8 ± 0.4	1191.8 ± 9.6	3.249 ± 0.028
x1 = 1	798.2 ± 0.4	1191.3 ± 9.6	3.404 ± 0.029

CCCCCCCCCC [decane]
[1]
Settings	mass density [kg/m3]	speed of sound [m/s]	viscosity [mPa·s]
–	725.9 ± 0.4	1235.4 ± 10	0.845 ± 0.013

CCCCCCCCCC [decane] + CC(C)CO
[2], x2 = 0
Settings	mass density [kg/m3]	speed of sound [m/s]	viscosity [mPa·s]
–	725.9 ± 0.4	1235.4 ± 10	0.845 ± 0.013

CCCCCC [hexane]
[1]
Settings	mass density [kg/m3]	speed of sound [m/s]	viscosity [mPa·s]
–	654.9 ± 0.4	1078.5 ± 8.7	0.313 ± 0.012

CCCCCC [hexane] + CC(C)CO
[2], x2 = 0
Settings	mass density [kg/m3]	speed of sound [m/s]	viscosity [mPa·s]
–	654.9 ± 0.4	1078.5 ± 8.7	0.313 ± 0.012

CCCCCCCC [octane]
[1]
Settings	mass density [kg/m3]	speed of sound [m/s]	viscosity [mPa·s]
–	698.6 ± 0.4	1170.9 ± 9.5	0.518 ± 0.013

CCCCCCCC [octane] + CC(C)CO
[2], x2 = 0
Settings	mass density [kg/m3]	speed of sound [m/s]	viscosity [mPa·s]
–	698.6 ± 0.4	1170.9 ± 9.5	0.518 ± 0.013
